Assay results: article PMC9551036, “A selective and orally bioavailable VHL-recruiting PROTAC achieves SMARCA2 degradation in vivo” (Nature Communications, 2022)
Values joined by “and” are separate entries in the source; they are usually repeats but may differ in a detail not shown here. Equal entries are not always repeated. Where two headings read alike, the source gives them in different places.

Tests used:
PBRM1BD5 = target: T1, PBRM1BD5 (Homo sapiens, UniProt Q86U86); assay: TR-FRET ternary complex affinity and cooperativity, PBRM1; type: binding
T1 construct: GST (TEV site) (N); His6 (TEV site) (N, cleaved yes); made in house; host or cells: PBRM1^BD5: Escherichia coli BL21(DE3)

[1] = target: T2, VCB: PROTAC: SMARCA2^BD ternary complex (Homo sapiens, UniProt P51531); assay: TR-FRET ternary complex affinity and cooperativity, SMARCA2; type: binding
T2 construct: P51531-2, residues 1373-1493 with additional N-terminal SM residues; GST (TEV site) (N); His6 (TEV site) (N, cleaved yes); made in house; host or cells: SMARCA2^BD: Escherichia coli BL21(DE3)

PBRM1 BD = target: T3, PBRM1 BD (Homo sapiens, UniProt Q86U86); assay: TR-FRET binary and ternary (PROTAC + VCB) affinity, PBRM1 bromodomain; type: binding; settings: individual replicates
T3 construct: GST (TEV site) (N); made in house; host or cells: Escherichia coli BL21(DE3)

[2] = target: VCB: PROTAC: SMARCA2^BD ternary complex (Homo sapiens, UniProt P40337+P51531); assay: TR-FRET ternary complex affinity and cooperativity, SMARCA2; type: binding; parameters: P51531-2, residues 1373-1493 with additional N-terminal SM residues; GST (TEV site) (N); His6 (TEV site) (N, cleaved yes); made in house; host or cells: SMARCA2^BD: Escherichia coli BL21(DE3)
NCI-H1568 cells = assay: Cell viability assay (CellTiter Glo) in NCI-H1568; type: cell-based, human; settings: for IC50: NCI-H1568, (18h), CellTiter Glo, individual replicates, read-out: NCI-H1568 (18h) CTG;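 as to % Viability: percent of DMSO-treated control cells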
Procedure: 500–2000 cells were seeded in white, clear bottom 96-well plates (Corning or Perkin Elmer) in 180–200 µl medium per well. The next day, compounds were added using a digital dispenser and a T0 sample was measured for reference. […], and viability (luminescence) was measured using CellTiter Glo or CellTiter Glo 2.0 (Promega) according to manufacturer’s instructions after equilibrating cells and reagents at room temperature and 10–20 min incubation time while shaking.

[3] = target: VCB: PROTAC: SMARCA4^BD ternary complex (Homo sapiens, UniProt P40337+P51532); assay: TR-FRET ternary complex affinity and cooperativity, SMARCA4; type: binding; parameters: P51532, residues 1448–1569 with additional N-terminal SM residues; GST (TEV site) (N); His6 (TEV site) (N, cleaved yes); made in house; host or cells: SMARCA4^BD: Escherichia coli BL21(DE3)
[4] = TR-FRET competition for SMARCA2BD, without VCB, mean ± SD, read-out: TR-FRET SMARCA2BD EC50
[5] = binary, PROTAC alone, individual replicates, read-out: SMARCA2 BD EC50
[6] = PROTAC + VCB, individual replicates, read-out: Ternary SMARCA2 BD EC50 (PROTAC + VCB)
[7] = TR-FRET competition for SMARCA2BD, + VCB, mean ± SD, read-out: TR-FRET Ternary SMARCA2BD EC50 (PROTAC + VCB)
[8] = PROTAC + VCB, individual replicates, read-out: Ternary SMARCA4 BD EC50 (PROTAC + VCB)
[9] = TR-FRET competition for SMARCA4BD, + VCB, mean ± SD, read-out: TR-FRET Ternary SMARCA4BD EC50 (PROTAC + VCB)
[10] = TR-FRET competition for PBRM1BD5, without VCB, mean ± SD, read-out: TR-FRET PBRM1BD EC50
[11] = PROTAC + VCB, read-out: Ternary PBRM1 BD EC50 (PROTAC + VCB)
[12] = binary, PROTAC alone, read-out: PBRM1 EC50
[13] = NCI-H1568 ([…]), mean ± SD, read-out: EC50 cell proliferation (CellTiter Glo)
[14] = Homo sapiens, NCI-H1568, […], read-out: EC50 cell proliferation (CellTiter Glo)

T1 sequence (Q86U86 645-766): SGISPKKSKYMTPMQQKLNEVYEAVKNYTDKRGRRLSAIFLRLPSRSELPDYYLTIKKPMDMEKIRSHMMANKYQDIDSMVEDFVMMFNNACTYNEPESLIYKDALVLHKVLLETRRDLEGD
T2 sequence (P51531 with tags, fused parts or gaps isoform P51531-2): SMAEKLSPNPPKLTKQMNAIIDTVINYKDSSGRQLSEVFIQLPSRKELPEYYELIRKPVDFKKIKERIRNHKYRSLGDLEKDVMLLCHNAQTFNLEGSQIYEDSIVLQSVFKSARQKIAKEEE
Sequence of VCB: PROTAC: SMARCA2^BD ternary complex (Homo sapiens, UniProt P40337+P51531) (P51531 with tags, fused parts or gaps isoform P51531-2): as above
Sequence of VCB: PROTAC: SMARCA2^BD ternary complex (Homo sapiens, UniProt P40337+P51531) (P40337 54-213): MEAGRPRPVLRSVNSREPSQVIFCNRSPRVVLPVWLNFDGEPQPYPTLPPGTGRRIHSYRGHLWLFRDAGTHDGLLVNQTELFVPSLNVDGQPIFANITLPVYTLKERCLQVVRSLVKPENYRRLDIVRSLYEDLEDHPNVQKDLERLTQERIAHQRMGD
Sequence of VCB: PROTAC: SMARCA2^BD ternary complex (Homo sapiens, UniProt P40337+P51531) (Q15369 17-112 partner): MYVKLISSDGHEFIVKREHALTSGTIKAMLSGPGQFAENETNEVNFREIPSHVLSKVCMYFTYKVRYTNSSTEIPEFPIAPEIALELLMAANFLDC
Sequence of VCB: PROTAC: SMARCA2^BD ternary complex (Homo sapiens, UniProt P40337+P51531) (Q15370 1-104 partner): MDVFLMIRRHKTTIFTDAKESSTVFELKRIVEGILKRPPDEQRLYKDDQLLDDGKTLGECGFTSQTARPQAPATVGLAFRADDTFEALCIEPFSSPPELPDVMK
Sequence of VCB: PROTAC: SMARCA4^BD ternary complex (P51532 1448-1569): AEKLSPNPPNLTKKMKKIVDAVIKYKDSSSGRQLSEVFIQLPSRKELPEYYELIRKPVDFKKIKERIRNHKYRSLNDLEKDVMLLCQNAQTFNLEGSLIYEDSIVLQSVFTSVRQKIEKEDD
Sequence of VCB: PROTAC: SMARCA4^BD ternary complex (P40337 54-213): as the sequence (P40337 54-213) above
Sequence of VCB: PROTAC: SMARCA4^BD ternary complex (Q15369 17-112 partner): as the sequence (Q15369 17-112 partner) above
Sequence of VCB: PROTAC: SMARCA4^BD ternary complex (Q15370 1-104 partner): as the sequence (Q15370 1-104 partner) above

SMILES: Cc1ncsc1-c1ccc(C(CCC(C)CCN2CCC(c3ccc4c(c3)n(C3CCCC3)c3nc(=O)c5c(Br)cccc5n43)CC2)NC(=O)C2CC(O)CN2C(=O)C(NC(=O)C2(F)CC2)C(C)(C)C)cc1 (centres unmarked) [ACBI2]
- EC50 (PBRM1BD5): 67 ± 9 nM
- EC50 [1, 4]: 172 ± 109 nM
- EC50 [1, 5]: 94.6 nM and 127 nM and 166 nM and 204 nM and 373 nM
- EC50 (PBRM1 BD; PBRM1 EC50, binary, PROTAC alone): 59.3 nM and 67.2 nM and 77.7 nM
- EC50 (PBRM1 BD; Ternary PBRM1 BD EC50 (PROTAC + VCB), PROTAC + VCB): 3.83 nM and 5.7 nM and 5.49 nM
- EC50 [2, 6]: 40 nM and 41.1 nM and 43.2 nM and 39.8 nM and 44 nM
- EC50 [2, 7]: 42 ± 2 nM
- EC50 (NCI-H1568 cells; Homo sapiens, NCI-H1568, assay not given, read-out: EC50): 7 nM
- EC50 (NCI-H1568 cells; Homo sapiens, NCI-H1568, read-out: LogEC50 (viability) (converted)): 7.43 nM
- EC50 (NCI-H1568 cells; Homo sapiens, NCI-H1568, values derived from curves in Extended Fig 4b, read-out: EC50 mean): 7.43 nM
- Bottom (% Viability, four-parameter fit) (NCI-H1568 cells; NCI-H1568): 1.886%
- HillSlope (viability) (NCI-H1568 cells; NCI-H1568): -1.08
- Top (% Viability, four-parameter fit) (NCI-H1568 cells; NCI-H1568): 95.68%
- IC50 (NCI-H1568 cells): 6.58 nM and 10.7 nM and 3.99 nM and 10.8 nM and 11.1 nM and 3.71 nM
- % Viability (NCI-H1568 cells; NCI-H1568, log10 conc -5 mol/l): -0.296% and -0.02611% and -0.1217% and 0.4768% and -0.2501%
- % Viability (NCI-H1568 cells; NCI-H1568, log10 conc -5.30103 mol/l): -0.06113% and -0.2267%
- % Viability (NCI-H1568 cells; NCI-H1568, log10 conc -5.50031 mol/l): 0.1326% and 0.2417% and 0.02451% and 0.1536% and 0.8908%
- % Viability (NCI-H1568 cells; NCI-H1568, log10 conc -5.90309 mol/l): 0.4837%
- % Viability (NCI-H1568 cells; NCI-H1568, log10 conc -6.50446 mol/l): 2.441% and 0.7903%
- % Viability (NCI-H1568 cells; NCI-H1568, log10 conc -7.10735 mol/l): 8.308% and 6.732%
- % Viability (NCI-H1568 cells; NCI-H1568, log10 conc -8.31158 mol/l): 56.5669% and 89.3041%
- % Viability (NCI-H1568 cells; NCI-H1568, log10 conc -8.91364 mol/l): 76.9492% and 107.085%
- % Viability (NCI-H1568 cells; NCI-H1568, log10 conc -9.5157 mol/l): 76.1437% and 99.3609%
- % Viability (NCI-H1568 cells; NCI-H1568, log10 conc -10 mol/l): 102.65% and 94.5594% and 117.406% and 60.7547% and 106.867%
- % Viability (NCI-H1568 cells; NCI-H1568, log10 conc -10.1175 mol/l): 83.2326% and 93.6592%
- % Viability (NCI-H1568 cells; NCI-H1568, log10 conc -10.5003 mol/l): 109.307% and 95.7558% and 110.528% and 76.6212%
- EC50 [3, 8]: 80.9 nM and 99.7 nM and 79.5 nM
- EC50 [3, 9]: 86 ± 11 nM

SMILES: CN1CCN(c2nc(=O)c3ccccc3o2)CC1 [compound 14]
- EC50 (PBRM1BD5; [10]): > 10000 nM
- EC50 [1, 5]: > 10000 nM
- EC50 (PBRM1 BD; [11]): > 10000 nM
- EC50 (PBRM1 BD; [12]): > 10000 nM
- EC50 [2, 6]: > 10000 nM
- EC50 (NCI-H1568 cells; [13]): > 10000 nM
- IC50 (NCI-H1568 cells): > 10000 nM
- EC50 [3, 8]: > 10000 nM

SMILES: CN1CCN(c2nc(=O)c3c(Cl)cccc3o2)CC1 [compound 13]
- EC50 (PBRM1BD5; [10]): > 10000 nM
- EC50 [1, 5]: > 10000 nM
- EC50 (PBRM1 BD; [11]): > 10000 nM
- EC50 (PBRM1 BD; [12]): > 10000 nM
- EC50 [2, 6]: > 10000 nM
- EC50 (NCI-H1568 cells; [13]): > 10000 nM
- IC50 (NCI-H1568 cells): > 10000 nM
- EC50 [3, 8]: > 10000 nM

SMILES: Cc1ncsc1-c1ccc([C@H](COC(C)CN2CCC(c3ccc4c(c3)n(C3CCCC3)c3nc(=O)c5c(Br)cccc5n43)CC2)NC(=O)[C@@H]2C[C@@H](O)CN2C(=O)[C@@H](NC(=O)C2(F)CC2)C(C)(C)C)cc1 (some centres unmarked) [compound 9]
- EC50 (PBRM1BD5; [10]): 34 ± 4 nM
- EC50 [1, 4]: 143 ± 27 nM
- EC50 [1, 5]: 132 nM and 149 nM and 140 nM (2×) and 172 nM and 134 nM and 115 nM and 202 nM and 128 nM
- EC50 (PBRM1 BD; [11]): 6.04 nM and 5.66 nM and 5.49 nM and 5.75 nM and 6.81 nM and 13.2 nM and 4.82 nM
- EC50 (PBRM1 BD; [12]): 31.7 nM and 35 nM and 40.8 nM and 29.8 nM and 31 nM
- EC50 [2, 6]: 20.6 nM and 18 nM and 20.2 nM and 22.8 nM and 25.6 nM and 25.2 nM and 34 nM and 21.7 nM and 14.5 nM and 19.9 nM and 18.7 nM
- EC50 [2, 7]: 21 ± 5 nM
- EC50 (NCI-H1568 cells; [14]): 45 ± 51 nM
- IC50 (NCI-H1568 cells): 48.2 nM and 116 nM and 16.6 nM
- EC50 [3, 8]: 88.4 nM and 113 nM and 133 nM and 114 nM and 84.3 nM
- EC50 [3, 9]: 105 ± 20 nM

SMILES: Cc1ncsc1-c1ccc([C@H](COCCN2CCC(c3ccc4c(c3)n(C3CCCC3)c3nc(=O)c5c(Br)cccc5n43)CC2)NC(=O)[C@@H]2C[C@@H](O)CN2C(=O)[C@@H](NC(=O)C2(N(C)C)CC2)C(C)(C)C)cc1 [compound 26]
- EC50 (PBRM1BD5; [10]): 22 ± 5 nM
- EC50 [1, 4]: 71 ± 15 nM
- EC50 [1, 5]: 87 nM and 79.2 nM and 87.9 nM and 88.7 nM and 86.5 nM and 48.4 nM and 75.1 nM and 59.9 nM and 56.1 nM (2×) and 67.5 nM
- EC50 (PBRM1 BD; [11]): 4.07 nM and 5.33 nM and 4.96 nM and 5.58 nM and 10.7 nM and 6.01 nM and 6.73 nM and 6.09 nM
- EC50 (PBRM1 BD; [12]): 22.2 nM and 18.2 nM and 23.4 nM and 24.5 nM and 15.7 nM and 23.5 nM and 21.5 nM and 14.9 nM and 30.3 nM and 26.7 nM
- EC50 [2, 6]: 13.6 nM and 14.3 nM and 15.5 nM and 15.9 nM and 16.4 nM and 11.2 nM and 10.2 nM and 21.5 nM and 22 nM and 6 nM and 9.26 nM
- EC50 [2, 7]: 13 ± 5 nM
- EC50 (NCI-H1568 cells; [14]): 33 ± 25 nM
- IC50 (NCI-H1568 cells): 52.4 nM and 57.1 nM and 12.2 nM
- EC50 [3, 9]: 56 ± 23 nM
